Results: ChEMBL document CHEMBL1156422 (J Biol Chem, 2007)
Active and inactive are the calls of the source. No cut-off for these calls is given here.

Key:
[1] = target: T1, Serine/threonine-protein kinase PLK3 (Homo sapiens, UniProt Q9H4B4); experiment: Inhibition of AX-7503 binding to recombinant Plk3 expressed in HeLa cells by Western blot; format: cell-based
Target sequence in this assay (Q9H4B4 whole entry): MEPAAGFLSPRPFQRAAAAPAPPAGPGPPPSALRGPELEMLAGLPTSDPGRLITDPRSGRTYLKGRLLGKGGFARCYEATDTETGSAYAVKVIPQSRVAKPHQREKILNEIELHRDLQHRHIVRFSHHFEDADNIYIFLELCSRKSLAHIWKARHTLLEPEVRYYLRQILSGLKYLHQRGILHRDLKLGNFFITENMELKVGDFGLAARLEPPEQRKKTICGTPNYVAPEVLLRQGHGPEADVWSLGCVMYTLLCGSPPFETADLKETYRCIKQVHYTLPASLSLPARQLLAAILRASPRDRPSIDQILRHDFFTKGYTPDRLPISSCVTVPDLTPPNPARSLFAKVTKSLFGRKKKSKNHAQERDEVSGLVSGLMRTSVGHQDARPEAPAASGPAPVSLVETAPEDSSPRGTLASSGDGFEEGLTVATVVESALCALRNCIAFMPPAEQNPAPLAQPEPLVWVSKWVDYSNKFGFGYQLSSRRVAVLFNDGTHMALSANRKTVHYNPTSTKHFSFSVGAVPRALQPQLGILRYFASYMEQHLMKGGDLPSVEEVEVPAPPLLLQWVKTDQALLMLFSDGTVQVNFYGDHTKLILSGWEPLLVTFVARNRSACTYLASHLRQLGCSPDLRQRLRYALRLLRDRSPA

[2] = target: T1, Serine/threonine-protein kinase PLK3; experiment: Inhibition of recombinant Plk3 assessed as casein substrate phosphorylation
Target sequence in this assay (Q9H4B4 whole entry): as above

[3] = target: Serine/threonine-protein kinase PLK1 (Homo sapiens, UniProt P53350); experiment: Inhibition of AX-7503 binding to recombinant Plk1 by Western blot
Sequence of Serine/threonine-protein kinase PLK1 (P53350 whole entry): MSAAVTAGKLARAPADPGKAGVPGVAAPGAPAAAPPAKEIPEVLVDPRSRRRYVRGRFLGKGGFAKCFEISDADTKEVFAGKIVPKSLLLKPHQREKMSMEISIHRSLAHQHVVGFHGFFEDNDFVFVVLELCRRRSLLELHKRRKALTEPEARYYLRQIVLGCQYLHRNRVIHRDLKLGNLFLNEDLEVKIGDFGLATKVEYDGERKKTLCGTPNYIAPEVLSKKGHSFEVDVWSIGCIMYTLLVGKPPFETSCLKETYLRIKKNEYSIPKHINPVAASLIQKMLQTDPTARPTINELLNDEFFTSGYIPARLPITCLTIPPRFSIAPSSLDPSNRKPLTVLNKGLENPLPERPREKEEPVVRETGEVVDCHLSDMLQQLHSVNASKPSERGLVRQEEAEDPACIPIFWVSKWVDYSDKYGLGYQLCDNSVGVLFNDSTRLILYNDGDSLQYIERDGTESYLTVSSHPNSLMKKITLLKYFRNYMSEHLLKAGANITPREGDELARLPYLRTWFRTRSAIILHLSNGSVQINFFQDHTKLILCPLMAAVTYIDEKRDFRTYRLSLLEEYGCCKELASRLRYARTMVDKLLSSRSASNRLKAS

[4] = target: T1, Serine/threonine-protein kinase PLK3; experiment: Inhibition of recombinant Plk3 expressed in human GM00637 cells at 1 uM assessed as decrease in p53 serine-20 phosphorylation; format: cell-based
Target sequence in this assay (Q9H4B4 whole entry, looked up): as the sequence (Q9H4B4 whole entry) above

[5] = target: T1, Serine/threonine-protein kinase PLK3; experiment: Inhibition of Plk3 in human A549 cells assessed as casein substrate phosphorylation by Western blot; format: cell-based
Target sequence in this assay (Q9H4B4 whole entry): as above

[6] = target: Serine/threonine-protein kinase PLK2 (Homo sapiens) (UniProt Q9NYY3); experiment: Inhibition of AX-7503 binding to recombinant Plk2 at 1 uM by Western blot
Sequence of Serine/threonine-protein kinase PLK2 (Homo sapiens) (Q9NYY3 whole entry, looked up): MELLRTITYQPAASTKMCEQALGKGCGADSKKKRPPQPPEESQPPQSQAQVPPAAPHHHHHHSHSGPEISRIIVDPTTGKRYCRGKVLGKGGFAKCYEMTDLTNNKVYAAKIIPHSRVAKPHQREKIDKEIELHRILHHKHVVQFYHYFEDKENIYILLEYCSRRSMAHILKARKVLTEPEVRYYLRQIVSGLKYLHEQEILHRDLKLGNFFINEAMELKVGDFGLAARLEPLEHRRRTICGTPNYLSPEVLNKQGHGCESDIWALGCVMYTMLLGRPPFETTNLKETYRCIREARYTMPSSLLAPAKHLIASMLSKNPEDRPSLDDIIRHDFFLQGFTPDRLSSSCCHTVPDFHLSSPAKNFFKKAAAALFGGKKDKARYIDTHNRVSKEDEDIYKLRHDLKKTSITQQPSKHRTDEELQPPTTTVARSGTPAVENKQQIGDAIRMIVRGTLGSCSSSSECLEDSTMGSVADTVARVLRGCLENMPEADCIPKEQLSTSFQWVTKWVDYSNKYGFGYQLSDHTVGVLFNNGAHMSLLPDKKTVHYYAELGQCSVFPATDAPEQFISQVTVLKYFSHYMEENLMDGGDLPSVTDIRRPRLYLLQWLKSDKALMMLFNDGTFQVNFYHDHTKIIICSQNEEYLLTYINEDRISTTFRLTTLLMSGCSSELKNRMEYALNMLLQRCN

[7] = target: T1, Serine/threonine-protein kinase PLK3; experiment: Inhibition of recombinant Plk3 expressed in human GM00637 cells at 1 uM; format: cell-based
Target sequence in this assay (Q9H4B4 whole entry, looked up): as the sequence (Q9H4B4 whole entry) above

Compound | IC50 [1] [µM] | IC50 [2] [µM] | IC50 [3] [µM] | Activity [4] | IC50 [5] [µM] | Activity [6] | inhibition [7] [%]
O=c1cc(N2CCOCC2)oc2c(-c3ccccc3)cccc12 [LY-294002] | 3 | 88 | 2.1 | – | – | – | –
COC[C@H]1OC(=O)c2coc3c2[C@@]1(C)C1=C(C3=O)[C@@H]2CCC(=O)[C@@]2(C)C[C@H]1OC(C)=O [WORTMANNIN] | 0.049 | 0.048 | – | Active | 0.22 | Active | 75
